Read-outs that look alike come from different tables or passages of the source.
Test system: P. falciparum infected erythrocytes
Assay: P. falciparum growth inhibition assay ([3H]hypoxanthine incorporation)
Type: cell-based, Plasmodium falciparum
Description: P. falciparum Growth Inhibition Assay.
The sensitivity of P. falciparum infected erythrocytes to the compound was determined in duplicate using the [3H]hypoxanthine incorporation method with an inoculum of 0.5% parasitemia (ring stage) and 2% hematocrit. The parasites were grown in RPMI 1640, 25 mM HEPES and supplemented with 5% Albumax. Plates are incubated at 37° C., 5% CO2, 5% O2, 90% N2. After 24 h of incubation, [3H]hypoxanthine is added and plates are incubated for another 24 h. After that period, plates are harvested on a glass fiber filter using a TOMTEC Cell harvester 96. Filters are dried and melt on scintillator sheets and the bound radioactivity is quantified by use of a Wallac Microbeta Trilux (Model 1450 LS—Perkin Elmer). IC50s are determined using Grafit 7 program (Grafit program; Erithacus Software, Horley, Surrey, United Kingdom).
Each example compound was tested generally in accordance with the above-mentioned assay and the PfIC50 value for each compound is reported in the Table below and according to the following: […]

[1] = Plasmodium falciparum, Erythrocyte, [3H]hypoxanthine incorporation, 0.5% parasitemia, 2% hematocrit, 48 h, read-out: PfIC50 Media
[2] = Plasmodium falciparum, Erythrocyte, read-out: average PfIC50
[3] = [3H]hypoxanthine incorporation, 0.5% parasitemia, 2% hematocrit, 48 h, read-out: PfIC50 Media

SMILES	IC50 [1] [nM]	IC50 [2] [nM]	IC50 [3] [nM]
CC(COc1ccc(C(=O)N2CC[C@H](c3ccc(F)cc3)C2)cc1)Cn1cnnn1 (single isomer, unassigned) [Example 1a]	100 to 500	–	–
NC(=O)c1nnn(C[C@@H](O)COc2ccc(C(=O)N3CC[C@H](c4ccc(F)cc4)C3)cc2)n1 [Example 38, 2-((R)-3-(4-((R)-3-(4-Fluorophenyl)pyrrolidine-1-carbonyl)phenoxy)-2-hydroxypropyl)-2H-tetrazole-5-carboxamide]	100 to 500	–	–
O=C(c1ccc(OC[C@H](O)Cn2cccn2)cc1)N1CC[C@H](c2ccc(F)cc2)C1 [Example 19, ((R)-3-(4-fluorophenyl)pyrrolidin-1-yl)(4-((R)-2-hydroxy-3-(1H-pyrazol-1-yl)propoxy)phenyl)methanone]	< 100	≤ 50	–
Cn1ccc(CC(O)COc2ccc(C(=O)N3CC[C@H](c4ccc(F)cc4)C3)cc2)n1 (single isomer, unassigned) [Example 36a]	< 100	–	–
O=C(c1ccc(OC[C@H](O)Cn2cnnc2)cc1)N1CC[C@H](c2ccc(F)cc2)C1 [Example 18, ((R)-3-(4-fluorophenyl)pyrrolidin-1-yl)(4-((R)-2-hydroxy-3-(4H-1,2,4-triazol-4-yl)propoxy)phenyl)methanone]	1000 to 5000	–	–
O=C(c1ccc(OCC(F)Cn2cnnn2)cc1)N1CC[C@H](c2ccc(F)cc2)C1 (single isomer, unassigned) [Example 3b]	–	≤ 50	< 100
O=C(c1ccc(OC[C@H](O)Cc2nnn[nH]2)cc1)N1CC[C@H](c2ccc(F)cc2)C1 [Example 25, ((R)-3-(4-fluorophenyl)pyrrolidin-1-yl)(4-((R)-2-hydroxy-3-(1H-tetrazol-5-yl)propoxy)phenyl)methanone]	1000 to 5000	–	–
O=C(c1ccc(OC[C@H](O)Cn2cnnn2)cc1F)N1CC[C@H](c2ccc(F)cc2)C1 [Example 26, (2-fluoro-4-((R)-2-hydroxy-3-(1H-tetrazol-1-yl)propoxy)phenyl)((R)-3-(4-fluorophenyl)pyrrolidin-1-yl)methanone]	100 to 500	–	–
O=C(c1ccc(OC[C@H](O)Cn2ncnn2)cc1)N1CC[C@@H](c2ccc(F)cc2)C1 [Example 13, ((S)-3-(4-Fluorophenyl)pyrrolidin-1-yl)(4-((R)-2-hydroxy-3-(2H-tetrazol-2-yl)propoxy)phenyl)methanone]	< 100	54	–
N[C@@H](COc1ccc(C(=O)N2CC[C@H](c3ccc(F)cc3)C2)cc1)Cn1cnnn1 [Example 46, (4-((R)-2-amino-3-(1H-tetrazol-1-yl)propoxy)phenyl)((R)-3-(4-fluorophenyl)pyrrolidin-1-yl)methanone]	< 100	–	–
N#Cc1nnn(C[C@@H](O)COc2ccc(C(=O)N3CC[C@H](c4ccc(F)cc4)C3)cc2)n1 [Example 39, 2-((R)-3-(4-((R)-3-(4-Fluorophenyl)pyrrolidine-1-carbonyl)phenoxy)-2-hydroxypropyl)-2H-tetrazole-5-carbonitrile]	100 to 500	–	–
O=C(c1ccc(OC[C@H](O)Cn2ncnn2)cc1)N1CCC(c2ccc(F)cc2F)C1 (single isomer, unassigned) [Example 42b]	–	–	100 to 500
O=C(c1ccc(OCC(O)Cc2cscn2)cc1)N1CC[C@H](c2ccc(F)cc2)C1 (single isomer, unassigned) [Example 35b]	–	–	100 to 500
O=C(c1ccc(OC[C@H](O)Cn2nccn2)cc1)N1CC[C@H](c2ccc(Cl)cc2)C1 [Example 31, ((R)-3-(4-chlorophenyl)pyrrolidin-1-yl)(4-((R)-2-hydroxy-3-(2H-1,2,3-triazol-2-yl)propoxy)phenyl)methanone]	< 100	≤ 50	–
O=C(c1ccc(OCC(F)Cn2cnnn2)cc1)N1CC[C@H](c2ccc(F)cc2)C1 (single isomer, unassigned) [Example 3a]	100 to 500	–	–
O=C(c1ccc(OC[C@@H](O)Cn2ncnn2)cc1)N1CC[C@@H](c2ccc(F)cc2)C1 [Example 14, ((S)-3-(4-Fluorophenyl)pyrrolidin-1-yl)(4-((S)-2-hydroxy-3-(2H-tetrazol-2-yl)propoxy)phenyl)methanone]	1000 to 5000	1200	–

Reference: patent publication US11453657B2 (GlaxoSmithKline Intellectual Property Development Limited, priority 2018, dated 2022)
